Data on two compounds can be found in patent US7078195B2, “Antibiotics AA-896” (Wyeth Holdings Corporation, priority 2001, dated 2006).

For assay [1], the system named is CNS GC 4537. The assay is described as follows: Broth dilution MIC. Format: cell-based. The conditions noted are these: Mueller-Hinton broth, 18 hours at 35° C. The gist of the method:
(§1)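 Standard broth microdilution in Mueller-Hinton broth with serially diluted compound and bacterial inoculum. MIC was the lowest concentration preventing visible growth after 18 h at 35 °C.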
(In general: Broth dilution looks for growth in wells or tubes with falling amounts of substance.)

Assay [2] deals with CNS GC 4538. The assay is described as follows: Broth dilution MIC. Format: cell-based. The conditions noted are these: Mueller-Hinton broth, 18 hours at 35° C. Put shortly:
as §1

The test system of assay [3] is CNS GC 4547. Kind of assay: Broth dilution MIC. Format: cell-based. Particulars: Mueller-Hinton broth, 18 hours at 35° C. The gist of the method: as §1
Assay [4] deals with E. cloacae GC 3783. Kind of assay: Broth dilution MIC. Format: cell-based. Particulars: Mueller-Hinton broth, 18 hours at 35° C. Put shortly: as §1
In assay [5] the test system is E. coli GC 2203. The assay is described as follows: Broth dilution MIC. Type of assay: cell-based. The conditions noted are these: Mueller-Hinton broth, 18 hours at 35° C. The gist of the method:
as §1

Assay [6] deals with E. coli GC 3226. The assay is described as follows: Broth dilution MIC. Format: cell-based. The conditions noted are these: Mueller-Hinton broth, 18 hours at 35° C. Put shortly:
as §1

Assay [7] deals with E. coli GC 4559. Kind of assay: Broth dilution MIC. Format: cell-based. Particulars: Mueller-Hinton broth, 18 hours at 35° C. Put shortly: as §1
The test system of assay [8] is E. coli GC 4560. Kind of assay: Broth dilution MIC. The conditions noted are these: Mueller-Hinton broth, 18 hours at 35° C. Type of assay: cell-based. The gist of the method:
as §1

Assay [9] relates to E. faecalis GC 242. The assay is described as follows: Broth dilution MIC. Format: cell-based. Particulars: Mueller-Hinton broth, 18 hours at 35° C. The gist of the method:
as §1

The test system of assay [10] is E. faecalis GC 4555. Kind of assay: Broth dilution MIC. Format: cell-based. The conditions noted are these: Mueller-Hinton broth, 18 hours at 35° C. The gist of the method:
as §1

Assay [11] relates to E. faecalis GC 842. The assay is described as follows: Broth dilution MIC. Format: cell-based. Particulars: Mueller-Hinton broth, 18 hours at 35° C. The gist of the method: as §1
The subject of assay [12] is K. pneumoniae GC 4534. The assay is described as follows: Broth dilution MIC. Type of assay: cell-based. Particulars: Mueller-Hinton broth, 18 hours at 35° C. Put shortly:
as §1

The test system of assay [13] is M. morganii GC 4531. The assay is described as follows: Broth dilution MIC. Format: cell-based. The conditions noted are these: Mueller-Hinton broth, 18 hours at 35° C. Put shortly: as §1
For assay [14], the system named is P. aeruginosa GC 2214. The assay is described as follows: Broth dilution MIC. Format: cell-based. The conditions noted are these: Mueller-Hinton broth, 18 hours at 35° C. Put shortly: as §1
In assay [15] the test system is P. aeruginosa GC 4532. Kind of assay: Broth dilution MIC. Particulars: Mueller-Hinton broth, 18 hours at 35° C. Type of assay: cell-based. Put shortly: as §1
The test system of assay [16] is P. rettgeri GC 4530. The assay is described as follows: Broth dilution MIC. Format: cell-based. The conditions noted are these: Mueller-Hinton broth, 18 hours at 35° C. The gist of the method: as §1
Assay [17] relates to S. aureus GC 1131. Kind of assay: Broth dilution MIC. Format: cell-based. The conditions noted are these: Mueller-Hinton broth, 18 hours at 35° C. Put shortly:
as §1

In assay [18] the test system is S. aureus GC 2216. Kind of assay: Broth dilution MIC. Type of assay: cell-based. The conditions noted are these: Mueller-Hinton broth, 18 hours at 35° C. Put shortly:
as §1

Assay [19] concerns S. aureus GC 4536. Kind of assay: Broth dilution MIC. Format: cell-based. The conditions noted are these: Mueller-Hinton broth, 18 hours at 35° C. Put shortly: as §1
In assay [20] the test system is S. marcescens GC 4077. The assay is described as follows: Broth dilution MIC. Type of assay: cell-based. Particulars: Mueller-Hinton broth, 18 hours at 35° C. The gist of the method: as §1
Assay [21] concerns Staphylococcus aureus Smith. The assay is described as follows: Acute lethal infection in mice. Type of assay: in vivo. As to the method: (§2) The antibacterial efficacy of AA-896-A1 in vivo against acute lethal infection in mice is established by infecting mice with Staphylococcus aureus Smith or Streptococcus pneumoniae. The mice are treated with AA-896-A1.
The test system of assay [22] is Streptococcus pneumoniae. Kind of assay: Acute lethal infection in mice. Format: in vivo. As to the method:
as §2

The subject of assay [23] is E. faecalis GC 2242. Kind of assay: Broth dilution MIC. The conditions noted are these: Mueller-Hinton broth, 18 hours at 35° C. Type of assay: cell-based. The gist of the method: as §1

For “5-O-[5-Amino-5-deoxy-2-O-methyl-β-D-ribofuranosyl]-6-[[3-[3-[[13-(carbamimidoylhydroxy-amino)tridecanoyl]oxy]-2-[2-[[(1-carboxy-2-methylpropyl)carbamoyl]amino]-2-(hexahydro-2-iminopyrimidin-4-yl)acetamido]-4-methylpentanamido]propyl]amino]-1,6-dideoxy-1-(3,4-dihydro-2,4-dioxopyrimidin-1(2H)-yl)-β-D-heptofuranuronic acid [AA-896-A1]”, the “Antimicrobial Activity (MIC)” value was 2 µg/mL in assay [1]; 1 µg/mL in assay [2]; 4 µg/mL in assay [3]; 0.5 µg/mL in assay [4]; 16 µg/mL in [5]; 8 µg/mL in [6]. The “Antimicrobial Activity (MIC)” value in assay [7] is 32 µg/mL; in assay [8] it was “<=0.03 μg/ml”; in assay [9], 32 µg/mL; in [10], 16 µg/mL; in assay [11], 32 µg/mL; in assay [12], greater than 32 µg/mL. Besides, the “Antimicrobial Activity (MIC)” value in assay [13] is greater than 32 µg/mL; in assay [14] it was 16 µg/mL; in assay [15] it was 32 µg/mL; in assay [16], greater than 32 µg/mL; in [17] it was 4 µg/mL; in assay [18] it was 8 µg/mL. Moreover, the “Antimicrobial Activity (MIC)” value in [19] was 4 µg/mL; in assay [20] it was greater than 32 µg/mL. For the same compound, the “ED50 range (95% confidence limit)” value in assay [21] lay in the range of 0.83 to 1.46 mg/kg; in assay [22] it was 8.0 to 16.0 mg/kg.

For `CC(C)C(NC(=O)NC(C(=O)NC(C(=O)NCCCNC(C(=O)O)C(OC1CC(O)C(CN)O1)C1OC(n2ccc(=O)[nH]c2=O)C(O)C1O)C(O)C(C)C)C1CCNC(=N)N1)C(=O)O` [AA-896-C3, 5-O-[5-Amino-2,5-dideoxy-β-D-ribofuranosyl]-6-[[3-[2-[2-[[(1-carboxy-2-methylpropyl)-carbamoyl]amino]-2-(hexahydro-2-iminopyrimidin-4-yl)acetamido]-3-hydroxy-4-methyl-pentanamido]propyl]amino]-1,6-dideoxy-1-(3,4-dihydro-2,4-dioxopyrimidin-1(2H)-yl)-β-D-heptofuranuronic acid], the “Antimicrobial Activity (MIC)” value was greater than 32 µg/mL in [1]; greater than 32 µg/mL in assay [2]; greater than 32 µg/mL in assay [3]; 8 µg/mL in assay [4]; 16 µg/mL in assay [5]; 32 µg/mL in [6]. The “Antimicrobial Activity (MIC)” value in assay [7] was 32 µg/mL; in [8], 0.5 µg/mL; in assay [23] it was greater than 32 µg/mL; in assay [10] it was greater than 32 µg/mL; in assay [11] it was greater than 32 µg/mL; in assay [12], greater than 32 µg/mL. For the same compound, the “Antimicrobial Activity (MIC)” value in [13] is greater than 32 µg/mL; in assay [14], 16 µg/mL; in [15], 32 µg/mL; in [16], greater than 32 µg/mL; in [17] it was greater than 32 µg/mL; in [18], greater than 32 µg/mL. Further, the “Antimicrobial Activity (MIC)” value in assay [19] and in [20] was greater than 32 µg/mL in each case.
